Reference: ChEMBL document CHEMBL1201862, “PubChem BioAssay data set” (2004)
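Exposure lasted 48 hours, with cells grown in 96-well plates and compounds tested at five concentrations. At the GI50, growth is halved.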 The source made the active and inactive calls. Cut-off read from the data, not from the text of the source: active = GI50 up to about 1.1 µM and inactive = higher.

What was measured:
Assay in all cases: inhibition of tumour cell growth, NCI panel, 48 h
786-0 = system: 786-0
BT-549 = system: BT-549
CCRF-CEM = system: CCRF-CEM
EKVX = system: EKVX
HCT-15 = system: HCT-15
HL-60 = system: HL-60
HOP-92 = system: HOP-92
IGROV-1 = system: IGROV-1
K562 = system: K562
KM12 = system: KM12
MCF7 = system: MCF7
Malme-3M = system: Malme-3M
SF-268 = system: SF-268
SF-539 = system: SF-539
SK-MEL-28 = system: SK-MEL-28
SR = system: SR
SW-620 = system: SW-620
T47D = system: T47D
UACC-62 = system: UACC-62
UO-31 = system: UO-31

SMILES	GI50 (786-0)	GI50 (BT-549)	GI50 (CCRF-CEM)	GI50 (EKVX)	GI50 (HCT-15)	GI50 (HL-60)	GI50 (HOP-92)	GI50 (IGROV-1)	GI50 (K562)	GI50 (KM12)	GI50 (MCF7)	GI50 (Malme-3M)	GI50 (SF-268)	GI50 (SF-539)	GI50 (SK-MEL-28)	GI50 (SR)	GI50 (SW-620)	GI50 (T47D)	GI50 (UACC-62)	GI50 (UO-31)
Cn1c(=O)c2[nH]c(CCC(=O)O)nc2n(C)c1=O	> 100 µM (inactive)	> 100 µM (inactive)	> 100 µM (inactive)	> 100 µM (inactive)	> 100 µM	> 100 µM (inactive)	> 100 µM (inactive)	> 100 µM (inactive)	> 100 µM (inactive)	> 100 µM (inactive)	> 100 µM (inactive)	> 100 µM (inactive)	> 100 µM (inactive)	> 100 µM (inactive)	> 100 µM (inactive)	> 100 µM (inactive)	> 100 µM (inactive)	> 100 µM (inactive)	> 100 µM (inactive)	> 100 µM (inactive)
COC(=O)c1ccc(C)cc1C1CN=NC12Cc1cc(C)ccc1C2=O (stereo not given)	21.3 µM (inactive)	15.3 µM (inactive)	15.9 µM (inactive)	23.4 µM (inactive)	5.24 µM	3.58 µM (inactive)	21.7 µM (inactive)	8.85 µM (inactive)	4.84 µM (inactive)	6.14 µM (inactive)	3.61 µM (inactive)	13.2 µM (inactive)	25.6 µM (inactive)	13.9 µM (inactive)	23.2 µM (inactive)	4.41 µM (inactive)	5.35 µM (inactive)	20.8 µM (inactive)	8 µM (inactive)	24 µM (inactive)
CC1=CC(c2ccccc2)n2c(nc3cc4ccccc4cc32)N1 (stereo not given)	> 100 µM (inactive)	> 100 µM (inactive)	> 100 µM (inactive)	> 100 µM (inactive)	> 100 µM	> 100 µM (inactive)	> 100 µM (inactive)	> 100 µM (inactive)	> 100 µM (inactive)	> 100 µM (inactive)	> 100 µM (inactive)	> 100 µM (inactive)	> 100 µM (inactive)	> 100 µM (inactive)	> 100 µM (inactive)	90.4 µM (inactive)	> 100 µM (inactive)	> 100 µM (inactive)	> 100 µM (inactive)	> 100 µM (inactive)
Cc1ccc(C)n2c1nc1ccc3ccccc3c12	> 100 µM (inactive)	> 100 µM (inactive)	> 100 µM (inactive)	27.9 µM (inactive)	> 100 µM	> 100 µM (inactive)	40.6 µM (inactive)	> 100 µM (inactive)	> 100 µM (inactive)	> 100 µM (inactive)	26.8 µM (inactive)	> 100 µM (inactive)	> 100 µM (inactive)	> 100 µM (inactive)	> 100 µM (inactive)	> 100 µM (inactive)	> 100 µM (inactive)	45 µM (inactive)	53.2 µM (inactive)	61 µM (inactive)
BrC1=C(Br)C2(SCCS2)[C@H]2C[C@@H]1c1ccccc12	58.3 µM (inactive)	38.4 µM (inactive)	14.6 µM (inactive)	36.9 µM (inactive)	17.8 µM	20.9 µM (inactive)	> 59.2 µM (inactive)	55 µM (inactive)	9.12 µM (inactive)	11.6 µM (inactive)	22.3 µM (inactive)	32.1 µM (inactive)	63.7 µM (inactive)	41.3 µM (inactive)	97.9 µM (inactive)	9.4 µM (inactive)	35.3 µM (inactive)	24.6 µM (inactive)	65.8 µM (inactive)	29.4 µM (inactive)
C=C1C(=O)C2=C[C@H]1C[C@H](O)C(=O)[C@]1(C)CCCC(C)(C)[C@H]1C[C@H]2O	0.959 µM (active)	2.16 µM (inactive)	0.0488 µM (active)	1.73 µM (inactive)	0.406 µM	0.237 µM (active)	1.49 µM (inactive)	3.6 µM (inactive)	0.215 µM (active)	2.93 µM (inactive)	0.388 µM (active)	0.83 µM (active)	4.38 µM (inactive)	1.33 µM (inactive)	1.73 µM (inactive)	0.358 µM (active)	0.583 µM (active)	1.11 µM (active)	1.59 µM (inactive)	2.06 µM (inactive)
COc1ccc(C(SC2C(O)C(CO)OC2n2ccc(N)nc2=O)(c2ccccc2)c2ccc(OC)cc2)cc1 (stereo not given)	16.8 µM (inactive)	18.2 µM (inactive)	20.2 µM (inactive)	18.1 µM (inactive)	17.8 µM	26.9 µM (inactive)	17.5 µM (inactive)	21.9 µM (inactive)	26.4 µM (inactive)	19.7 µM (inactive)	17.3 µM (inactive)	15 µM (inactive)	17.7 µM (inactive)	18.7 µM (inactive)	27.4 µM (inactive)	12.4 µM (inactive)	23.6 µM (inactive)	19.1 µM (inactive)	16.1 µM (inactive)	18.5 µM (inactive)
Brc1ccc2[nH]cc([C@H]3CN[C@@H](c4c[nH]c5ccc(Br)cc45)CN3)c2c1	2.29 µM (inactive)	> 41.1 µM (inactive)	2.22 µM (inactive)	2.61 µM (inactive)	2.04 µM	1.77 µM (inactive)	1.87 µM (inactive)	1.87 µM (inactive)	1.99 µM (inactive)	1.76 µM (inactive)	1.58 µM (inactive)	2.2 µM (inactive)	2.65 µM (inactive)	2 µM (inactive)	8.05 µM (inactive)	1.92 µM (inactive)	2.51 µM (inactive)	2.66 µM (inactive)	5.04 µM (inactive)	1.91 µM (inactive)
CC1(C)CC(=O)C2=C(C1)C(c1ccccc1Cl)C1C(=O)CC(C)(C)CC1(O)O2 (stereo not given)	> 100 µM (inactive)	> 100 µM (inactive)	26.8 µM (inactive)	> 100 µM (inactive)	42.5 µM	4.91 µM (inactive)	> 100 µM (inactive)	> 100 µM (inactive)	15.3 µM (inactive)	> 100 µM (inactive)	37.3 µM (inactive)	> 100 µM (inactive)	> 100 µM (inactive)	69 µM (inactive)	> 100 µM (inactive)	28.1 µM (inactive)	43.7 µM (inactive)	> 100 µM (inactive)	> 64.7 µM (inactive)	> 100 µM (inactive)
